Measurements from patent US4015974A, “Amido phosphorothiolates” (priority 1972, dated 1977).

Experiments:
Format in all cases: in vivo
radish = assay: Pre-emergence application, herbicidal effect on radish (Table 1); design: key: 0: not damaged; 5: completely killed; conditions: 20 days after application, score 0-5
Method in brief: (§1)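 Pre-emergence soil treatment: seeds sown in pots of about 10 cm and covered with soil, then compounds applied as wettable powder diluted in water. Plants grown in a greenhouse; damage scored 20 days after application from 0 (not damaged) to 5 (completely killed).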

[1] = test system: common lambsquarter (Chenopodium album); assay: Pre-emergence application, herbicidal effect on common lambsquarter (Table 1); design: key: 0: not damaged; 5: completely killed; conditions: 20 days after application, score 0-5
Method in brief: as §1

[2] = test system: large crabgrass (Digitaria sanguinalis); assay: Pre-emergence application, herbicidal effect on large crabgrass (Table 1); design: key: 0: not damaged; 5: completely killed; conditions: 20 days after application, score 0-5
Method in brief: as §1

[3] = test system: redroot pigweed (Amaranthus retroflexus); assay: Pre-emergence application, herbicidal effect on redroot pigweed (Table 1); design: key: 0: not damaged; 5: completely killed; conditions: 20 days after application, score 0-5
Method in brief: as §1

[4] = test system: barnyard grass (Echinochloa crus-galli); assay: Water application, herbicidal effect on barnyard grass (Table 2); design: key: 0: not damaged; 5: completely killed; conditions: 25 days, score 0-5
Method in brief: (§2)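 Flooded paddy-soil pots with 3-leaf-stage transplanted rice and sown barnyard grass; wettable-powder compounds applied to soil under water. Herbicidal effect and rice phytotoxicity, also on spontaneously germinated broad-leaved weeds, scored 0–5 at 25 days after application.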

rice = assay: Water application, phytotoxicity on rice (Table 2); design: key: 0: no effect; 1: very slightly affected; 2: slightly affected; 3: moderately affected; 4: considerably affected; 5: completely killed; conditions: 25 days, score 0-5
Method in brief: as §2

[5] = test system: common purslane (Portulaca oleracea); assay: Pre-emergence application, herbicidal effect on common purslane (Table 1); design: key: 0: not damaged; 5: completely killed; conditions: 20 days after application, score 0-5
Method in brief: as §1

[6] = test system: broad-leaved weeds, e.g., monochoria, false pimpernel and toothcup; assay: Water application, herbicidal effect on broad-leaved weeds (Table 2); design: key: 0: not damaged; 5: completely killed; conditions: 25 days, score 0-5
Method in brief: as §2

[7] = test system: barnyard grass (Echinochloa crus-galli); assay: Pre-emergence application, herbicidal effect on barnyard grass (Table 1); design: key: 0: not damaged; 5: completely killed; conditions: 20 days after application, score 0-5
Method in brief: as §1

Row | Compound | Herbicidal effect, radish (radish; 10 g./a.) | Herbicidal effect, radish (radish; 20 g./a.) | Herbicidal effect, radish (radish; 40 g./a.) | Herbicidal effect, common lambsquarter ([1]; 10 g./a.) | Herbicidal effect, common lambsquarter ([1]; 20 g./a.) | Herbicidal effect, common lambsquarter ([1]; 40 g./a.) | Herbicidal effect, large crabgrass ([2]; 10 g./a.) | Herbicidal effect, large crabgrass ([2]; 20 g./a.) | Herbicidal effect, large crabgrass ([2]; 40 g./a.) | Herbicidal effect, redroot pigweed ([3]; 10 g./a.) | Herbicidal effect, redroot pigweed ([3]; 20 g./a.) | Herbicidal effect, redroot pigweed ([3]; 40 g./a.) | Herbicidal effects, barnyard grass ([4]; 10 g/a) | Herbicidal effects, barnyard grass ([4]; 20 g/a) | Herbicidal effects, barnyard grass ([4]; 40 g/a) | Phytotoxicity on rice (rice; 10 g/a) | Phytotoxicity on rice (rice; 20 g/a) | Phytotoxicity on rice (rice; 40 g/a) | Herbicidal effect, common purslane ([5]; 10 g./a.) | Herbicidal effect, common purslane ([5]; 20 g./a.) | also measured
1 | CCCCCSP(=O)(OCC)SCC(=O)N1CCCCC1CC (stereo not drawn) [Compound 78] | 0 | 0 | 0 | 3 | 4 | 5 | 5 | 5 | 5 | 4 | 4 | 5 | 5 | 5 | 5 | 0 | 0 | 0 | 4 | 4 | Herbicidal effect, common purslane ([5]; 40 g./a.): 5; Herbicidal effects, broad-leaved weeds ([6]; 10 g/a): 5; Herbicidal effects, broad-leaved weeds ([6]; 20 g/a): 5; Herbicidal effects, broad-leaved weeds ([6]; 40 g/a): 5; Herbicidal effect, barnyard grass ([7]; 10 g./a.): 5; Herbicidal effect, barnyard grass ([7]; 20 g./a.): 5; Herbicidal effect, barnyard grass ([7]; 40 g./a.): 5
2 | CCOP(=O)(SCCC(C)C)SCC(=O)N1CCCCC1CC (stereo not drawn) [Compound 79] | 0 | 0 | 1 | 5 | 5 | 5 | 5 | 5 | 5 | 4 | 5 | 5 | 5 | 5 | 5 | 0 | 0 | 1 | 5 | 5 | Herbicidal effect, common purslane ([5]; 40 g./a.): 5; Herbicidal effects, broad-leaved weeds ([6]; 10 g/a): 5; Herbicidal effects, broad-leaved weeds ([6]; 20 g/a): 5; Herbicidal effects, broad-leaved weeds ([6]; 40 g/a): 5; Herbicidal effect, barnyard grass ([7]; 10 g./a.): 5; Herbicidal effect, barnyard grass ([7]; 20 g./a.): 5; Herbicidal effect, barnyard grass ([7]; 40 g./a.): 5
